# According to BindingDB's records for doi:10.1016/j.bmc.2019.03.049 (Zhuhai Campus of Zunyi Medical University, 2019):
# Target: Hepatocyte growth factor receptor (Homo sapiens) (UniProt P08581)
# Assay: Inhibition of c-MET (unknown origin) using FAM-labelled peptide as substrate measured after 10 mins by mobility shift assay
# Hepatocyte growth factor receptor (Homo sapiens), sequence (P08581 whole entry, looked up): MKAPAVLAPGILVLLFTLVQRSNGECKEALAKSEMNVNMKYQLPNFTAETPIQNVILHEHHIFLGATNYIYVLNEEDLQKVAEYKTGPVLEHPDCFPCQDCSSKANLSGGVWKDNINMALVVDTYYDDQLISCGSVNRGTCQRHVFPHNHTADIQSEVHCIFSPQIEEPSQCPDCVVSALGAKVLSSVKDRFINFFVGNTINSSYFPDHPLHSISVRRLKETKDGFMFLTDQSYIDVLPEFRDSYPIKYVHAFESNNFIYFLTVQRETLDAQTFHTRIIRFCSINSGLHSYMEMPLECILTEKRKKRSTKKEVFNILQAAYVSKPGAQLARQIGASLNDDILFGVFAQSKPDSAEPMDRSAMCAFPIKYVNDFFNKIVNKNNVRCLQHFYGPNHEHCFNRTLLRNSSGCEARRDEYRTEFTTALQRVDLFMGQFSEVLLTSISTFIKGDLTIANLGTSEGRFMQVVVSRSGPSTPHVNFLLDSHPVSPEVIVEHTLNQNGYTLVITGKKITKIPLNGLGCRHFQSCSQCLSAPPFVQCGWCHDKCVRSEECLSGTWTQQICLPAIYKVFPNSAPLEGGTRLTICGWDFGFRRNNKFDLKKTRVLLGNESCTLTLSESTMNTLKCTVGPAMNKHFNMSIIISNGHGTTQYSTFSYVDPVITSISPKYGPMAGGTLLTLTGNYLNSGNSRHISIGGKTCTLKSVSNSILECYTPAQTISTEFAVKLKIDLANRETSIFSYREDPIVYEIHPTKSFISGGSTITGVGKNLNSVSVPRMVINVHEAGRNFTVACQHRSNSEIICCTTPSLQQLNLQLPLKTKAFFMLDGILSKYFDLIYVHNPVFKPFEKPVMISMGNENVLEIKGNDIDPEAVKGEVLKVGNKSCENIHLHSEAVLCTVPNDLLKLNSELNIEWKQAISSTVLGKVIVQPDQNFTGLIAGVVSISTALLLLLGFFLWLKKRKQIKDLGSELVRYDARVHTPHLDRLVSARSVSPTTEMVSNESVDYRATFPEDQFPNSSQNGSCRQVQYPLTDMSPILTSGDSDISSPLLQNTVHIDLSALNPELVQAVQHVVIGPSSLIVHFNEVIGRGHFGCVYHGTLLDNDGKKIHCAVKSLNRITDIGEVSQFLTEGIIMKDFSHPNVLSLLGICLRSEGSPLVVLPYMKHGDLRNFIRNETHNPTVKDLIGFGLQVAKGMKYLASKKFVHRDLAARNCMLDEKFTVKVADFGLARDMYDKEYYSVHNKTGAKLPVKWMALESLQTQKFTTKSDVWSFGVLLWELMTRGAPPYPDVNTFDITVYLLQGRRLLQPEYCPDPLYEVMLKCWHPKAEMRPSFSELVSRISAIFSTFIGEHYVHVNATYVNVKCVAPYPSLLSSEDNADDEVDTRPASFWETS
row,IC50,SMILES
1,3.35 µM,COc1cc2c(Oc3ccc(C4SCC(=O)N4NC(=O)Nc4ccc(F)cc4F)cc3)ccnc2cc1OCCCN1CCOCC1 (stereo not drawn)
2,4.52 µM,COc1cc2c(Oc3ccc(C4SCC(=O)N4NC(=O)Nc4ccccc4)cc3)ccnc2cc1OCCCN1CCOCC1 (stereo not drawn)
3,4.3 µM,COc1cc2c(Oc3ccc(C4SCC(=O)N4NC(=O)Nc4ccc(F)cc4)cc3)ccnc2cc1OCCCN1CCOCC1 (stereo not drawn)
